# Active and inactive are the calls of the source.
# Columns and labels:
# [1] = cells; assay type: functional
# [2] = target: Large T antigen (Simian virus 40, UniProt P03070); assay type: functional, Betapolyomavirus macacae;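 note: Confirmatory-stage PubChem screen for compounds that inhibit SV40 T antigen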
# [3] = microbe, parasite or virus in culture; assay type: functional; conditions: Mycobacterium tuberculosis
# [4] = test system: Streptococcus sp. 'group A'; test: Streptococcus pyogenes SK(-)GAS viability under kanamycin – luminescence, BacTiterGlo, confirmation, counter-screen for streptokinase expression inhibitor project, dose response (AID 1900); assay type: functional, organism-based
# [5] = test system: Streptococcus; test: GAS UMAA2166 growth inhibition – luminescence, BacTiterGlo, counter-screen for streptokinase expression inhibitor project, dose response (AID 1915); assay type: functional, organism-based;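 note: potency for reduction of bacterial viability or growth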
# [6] = target: T1, Streptokinase A (Streptococcus pyogenes serotype M1, UniProt P10520); test: viability-normalized secreted streptokinase activity reduction – plasminogen activation absorbance, OD405, dose response (AID 1914); assay type: functional, Streptococcus pyogenes M1 GAS;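 note: secreted streptokinase activity via plasminogen activation per viability signal from cell pellet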
# T1 sequence (P10520 whole entry): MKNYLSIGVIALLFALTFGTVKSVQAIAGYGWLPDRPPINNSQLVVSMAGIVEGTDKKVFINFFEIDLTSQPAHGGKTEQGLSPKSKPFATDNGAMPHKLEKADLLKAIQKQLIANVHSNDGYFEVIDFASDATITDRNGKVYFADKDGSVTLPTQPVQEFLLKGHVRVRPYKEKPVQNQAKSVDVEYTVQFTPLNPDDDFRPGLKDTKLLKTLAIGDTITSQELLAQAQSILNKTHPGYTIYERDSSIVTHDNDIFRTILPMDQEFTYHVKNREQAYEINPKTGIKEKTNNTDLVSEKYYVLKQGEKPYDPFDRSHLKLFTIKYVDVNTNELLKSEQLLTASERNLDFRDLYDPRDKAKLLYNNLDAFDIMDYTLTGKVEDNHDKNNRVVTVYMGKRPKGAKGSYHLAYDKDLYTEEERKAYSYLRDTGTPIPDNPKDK
# [7] = target: T2, Short transient receptor potential channel 4 (Mus musculus, UniProt Q9QUQ5); test: block of DAMGO-driven TRPC4 calcium entry – cell-based, HEK293 TRPC4/mu-opioid, Fluo-4 calcium, dose response (AID 434942); assay type: functional;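 note: potency of inhibitors blocking the TRPC4 calcium response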
# T2 sequence (Q9QUQ5 whole entry): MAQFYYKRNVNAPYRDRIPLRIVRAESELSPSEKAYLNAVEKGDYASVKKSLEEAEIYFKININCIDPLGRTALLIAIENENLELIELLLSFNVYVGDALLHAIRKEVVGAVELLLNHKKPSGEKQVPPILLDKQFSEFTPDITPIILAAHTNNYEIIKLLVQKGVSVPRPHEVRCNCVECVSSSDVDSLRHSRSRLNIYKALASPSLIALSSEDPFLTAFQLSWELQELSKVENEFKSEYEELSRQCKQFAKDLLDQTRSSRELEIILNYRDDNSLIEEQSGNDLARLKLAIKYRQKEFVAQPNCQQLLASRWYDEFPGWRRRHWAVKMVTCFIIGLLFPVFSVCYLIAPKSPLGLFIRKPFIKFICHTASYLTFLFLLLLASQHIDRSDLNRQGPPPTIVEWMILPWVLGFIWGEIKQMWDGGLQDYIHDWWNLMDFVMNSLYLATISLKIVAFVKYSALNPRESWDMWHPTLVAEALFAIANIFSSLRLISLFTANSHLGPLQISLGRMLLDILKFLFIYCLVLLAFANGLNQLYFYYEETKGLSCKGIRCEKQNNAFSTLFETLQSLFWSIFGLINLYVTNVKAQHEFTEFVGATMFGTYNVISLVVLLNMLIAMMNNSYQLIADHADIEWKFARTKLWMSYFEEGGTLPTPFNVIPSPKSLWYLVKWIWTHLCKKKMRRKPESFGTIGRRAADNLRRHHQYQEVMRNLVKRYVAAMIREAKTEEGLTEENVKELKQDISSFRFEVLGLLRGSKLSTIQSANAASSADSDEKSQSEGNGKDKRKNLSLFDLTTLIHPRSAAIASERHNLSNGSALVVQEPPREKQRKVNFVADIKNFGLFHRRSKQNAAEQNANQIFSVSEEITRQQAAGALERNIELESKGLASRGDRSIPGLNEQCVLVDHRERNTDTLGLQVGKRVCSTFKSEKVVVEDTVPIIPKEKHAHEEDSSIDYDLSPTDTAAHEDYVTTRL
# [8] = target: T3, Estrogen receptor (Homo sapiens, UniProt P03372);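 note: potency for inhibiting coactivator peptide recruitment to the receptor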
# T3 sequence (P03372 whole entry): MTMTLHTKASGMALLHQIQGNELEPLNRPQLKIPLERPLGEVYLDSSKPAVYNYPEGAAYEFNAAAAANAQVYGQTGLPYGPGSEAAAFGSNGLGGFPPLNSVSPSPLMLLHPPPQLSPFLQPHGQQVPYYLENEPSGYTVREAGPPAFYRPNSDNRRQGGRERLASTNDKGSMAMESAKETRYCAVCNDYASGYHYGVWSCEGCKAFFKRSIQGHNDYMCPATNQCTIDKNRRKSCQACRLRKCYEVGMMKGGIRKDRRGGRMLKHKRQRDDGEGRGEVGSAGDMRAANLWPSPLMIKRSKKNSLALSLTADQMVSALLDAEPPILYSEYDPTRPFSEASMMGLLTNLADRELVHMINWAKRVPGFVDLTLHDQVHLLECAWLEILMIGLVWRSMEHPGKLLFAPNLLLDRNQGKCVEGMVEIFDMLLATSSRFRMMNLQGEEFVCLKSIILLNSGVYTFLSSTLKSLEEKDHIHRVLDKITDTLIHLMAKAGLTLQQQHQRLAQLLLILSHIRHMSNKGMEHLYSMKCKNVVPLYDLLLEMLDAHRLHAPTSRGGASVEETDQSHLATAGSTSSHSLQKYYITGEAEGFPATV
# [9] = target: T2, Short transient receptor potential channel 4; test: calcium entry via TRPC4 opening agents – cell-based, HEK293 TRPC4/mu-opioid, Fluo-4 calcium, dose response (AID 434937); assay type: functional
# [10] = target: Cytochrome P450 2D6 (Homo sapiens, UniProt P10635);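 note: CYP2D6 member of a cytochrome P450 panel assay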
# Sequence of Cytochrome P450 2D6 (P10635 whole entry): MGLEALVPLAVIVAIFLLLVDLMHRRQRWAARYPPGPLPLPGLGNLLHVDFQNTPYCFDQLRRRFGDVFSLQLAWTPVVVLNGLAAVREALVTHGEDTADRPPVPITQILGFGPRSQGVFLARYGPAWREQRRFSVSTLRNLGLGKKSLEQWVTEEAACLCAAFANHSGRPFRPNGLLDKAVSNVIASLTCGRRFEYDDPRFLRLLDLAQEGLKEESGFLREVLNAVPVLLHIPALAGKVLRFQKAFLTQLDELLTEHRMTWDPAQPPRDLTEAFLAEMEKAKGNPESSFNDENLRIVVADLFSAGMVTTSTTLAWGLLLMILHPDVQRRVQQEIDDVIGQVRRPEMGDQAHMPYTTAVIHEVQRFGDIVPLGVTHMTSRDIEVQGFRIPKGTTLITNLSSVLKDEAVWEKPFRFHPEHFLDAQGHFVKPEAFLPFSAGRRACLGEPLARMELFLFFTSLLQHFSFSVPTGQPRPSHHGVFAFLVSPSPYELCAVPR
# [11] = target: Cytochrome P450 3A4 (Homo sapiens, UniProt P08684);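 note: CYP3A4 tested as one member of a cytochrome P450 panel screen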
# Sequence of Cytochrome P450 3A4 (P08684 whole entry): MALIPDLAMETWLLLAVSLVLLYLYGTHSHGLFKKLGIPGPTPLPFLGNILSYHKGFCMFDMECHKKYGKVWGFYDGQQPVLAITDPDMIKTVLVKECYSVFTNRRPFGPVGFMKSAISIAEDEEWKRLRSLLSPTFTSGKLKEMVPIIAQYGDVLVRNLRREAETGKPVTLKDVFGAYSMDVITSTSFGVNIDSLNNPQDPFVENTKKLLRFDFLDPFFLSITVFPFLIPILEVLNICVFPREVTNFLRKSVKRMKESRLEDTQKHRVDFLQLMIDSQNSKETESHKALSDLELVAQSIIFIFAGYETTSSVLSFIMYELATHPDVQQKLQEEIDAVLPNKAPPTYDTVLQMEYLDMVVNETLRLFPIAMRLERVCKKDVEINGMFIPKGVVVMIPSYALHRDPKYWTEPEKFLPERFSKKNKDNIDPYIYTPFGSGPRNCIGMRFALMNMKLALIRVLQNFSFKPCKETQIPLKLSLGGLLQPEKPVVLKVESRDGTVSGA
# [12] = target: T4, Fatty acid synthase (Homo sapiens, UniProt P49327); test: inhibition of human FAS-TE enzyme activity – biochemical, kinetic fluorescence intensity, dose response (AID 624326); assay type: functional;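 note: rate of fluorescence rise from hydrolysis of a fluorogenic O-methyl fluorescein ester substrate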
# T4 sequence (P49327 whole entry): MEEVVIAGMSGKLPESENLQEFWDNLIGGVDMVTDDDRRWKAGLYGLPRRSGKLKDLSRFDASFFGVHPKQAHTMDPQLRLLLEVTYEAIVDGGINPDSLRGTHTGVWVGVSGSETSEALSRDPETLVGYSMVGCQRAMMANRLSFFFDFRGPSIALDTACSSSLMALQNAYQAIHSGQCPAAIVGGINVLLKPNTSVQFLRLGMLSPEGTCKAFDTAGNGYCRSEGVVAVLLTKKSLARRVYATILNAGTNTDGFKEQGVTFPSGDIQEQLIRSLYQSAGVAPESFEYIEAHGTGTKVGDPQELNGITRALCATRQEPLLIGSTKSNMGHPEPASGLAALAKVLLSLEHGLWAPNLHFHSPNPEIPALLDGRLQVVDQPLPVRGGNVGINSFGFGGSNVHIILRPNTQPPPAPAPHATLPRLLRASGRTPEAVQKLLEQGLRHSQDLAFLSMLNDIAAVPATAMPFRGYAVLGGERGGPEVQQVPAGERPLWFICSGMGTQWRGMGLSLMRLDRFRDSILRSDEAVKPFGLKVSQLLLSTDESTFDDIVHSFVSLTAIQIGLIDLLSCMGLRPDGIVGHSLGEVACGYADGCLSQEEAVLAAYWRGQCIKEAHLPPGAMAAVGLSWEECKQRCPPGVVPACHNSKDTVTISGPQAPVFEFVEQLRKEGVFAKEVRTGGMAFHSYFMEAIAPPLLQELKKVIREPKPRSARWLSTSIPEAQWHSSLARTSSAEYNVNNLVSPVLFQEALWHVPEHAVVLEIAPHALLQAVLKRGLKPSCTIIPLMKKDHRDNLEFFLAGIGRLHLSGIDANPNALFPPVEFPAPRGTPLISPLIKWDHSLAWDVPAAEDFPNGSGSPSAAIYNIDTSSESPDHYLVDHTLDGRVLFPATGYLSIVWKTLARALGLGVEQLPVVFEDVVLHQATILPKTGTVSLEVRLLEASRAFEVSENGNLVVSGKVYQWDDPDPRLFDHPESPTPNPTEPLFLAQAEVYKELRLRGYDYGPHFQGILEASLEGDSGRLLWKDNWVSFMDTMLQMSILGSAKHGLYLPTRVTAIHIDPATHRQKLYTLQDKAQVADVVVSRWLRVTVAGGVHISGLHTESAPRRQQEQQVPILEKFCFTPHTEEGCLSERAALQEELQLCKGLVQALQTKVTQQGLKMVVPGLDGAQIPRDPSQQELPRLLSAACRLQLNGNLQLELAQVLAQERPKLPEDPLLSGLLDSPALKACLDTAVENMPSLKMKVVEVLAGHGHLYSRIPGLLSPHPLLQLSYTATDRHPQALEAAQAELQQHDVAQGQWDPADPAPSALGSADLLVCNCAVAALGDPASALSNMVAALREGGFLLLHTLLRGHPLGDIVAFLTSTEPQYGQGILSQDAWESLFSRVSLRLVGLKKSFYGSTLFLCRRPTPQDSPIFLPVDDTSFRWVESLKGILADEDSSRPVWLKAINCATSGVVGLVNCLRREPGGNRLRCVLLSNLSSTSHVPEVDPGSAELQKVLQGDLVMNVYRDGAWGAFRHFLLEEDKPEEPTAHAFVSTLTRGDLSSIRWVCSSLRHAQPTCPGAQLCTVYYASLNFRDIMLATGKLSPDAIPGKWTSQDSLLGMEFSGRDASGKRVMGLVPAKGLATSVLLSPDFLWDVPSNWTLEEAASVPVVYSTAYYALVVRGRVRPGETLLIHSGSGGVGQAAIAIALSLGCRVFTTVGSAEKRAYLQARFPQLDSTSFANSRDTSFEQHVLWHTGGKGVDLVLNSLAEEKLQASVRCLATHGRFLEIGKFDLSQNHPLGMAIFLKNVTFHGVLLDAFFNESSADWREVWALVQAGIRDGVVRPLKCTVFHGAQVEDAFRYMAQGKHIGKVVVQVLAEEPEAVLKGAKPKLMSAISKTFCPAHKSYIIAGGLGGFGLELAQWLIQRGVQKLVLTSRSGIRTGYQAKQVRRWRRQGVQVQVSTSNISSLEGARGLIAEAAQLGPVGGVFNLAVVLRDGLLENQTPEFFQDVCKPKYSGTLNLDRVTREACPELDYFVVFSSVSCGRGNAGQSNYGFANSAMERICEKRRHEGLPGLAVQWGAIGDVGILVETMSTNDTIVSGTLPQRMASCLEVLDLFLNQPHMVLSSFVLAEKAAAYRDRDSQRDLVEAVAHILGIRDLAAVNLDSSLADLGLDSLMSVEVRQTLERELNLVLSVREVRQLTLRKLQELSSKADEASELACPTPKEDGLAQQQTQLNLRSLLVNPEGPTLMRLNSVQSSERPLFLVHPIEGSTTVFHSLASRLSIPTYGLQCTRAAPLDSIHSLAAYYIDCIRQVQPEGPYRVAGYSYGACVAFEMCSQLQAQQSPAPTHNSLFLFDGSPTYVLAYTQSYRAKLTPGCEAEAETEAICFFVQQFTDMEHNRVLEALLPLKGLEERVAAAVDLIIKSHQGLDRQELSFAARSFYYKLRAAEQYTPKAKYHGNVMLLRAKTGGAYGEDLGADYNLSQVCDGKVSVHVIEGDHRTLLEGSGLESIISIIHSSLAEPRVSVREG
# [13] = target: T4, Fatty acid synthase; test: inhibition of human FAS-TE enzyme activity – biochemical, endpoint fluorescence intensity, uHTS hits, dose response (AID 624327); assay type: functional;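 note: fluorescence from hydrolysis of an O-methyl fluorescein acyl ester substrate by the enzyme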
# [14] = target: T5, Cytochrome P450 1A2 (Homo sapiens, UniProt P05177);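 note: PubChem cytochrome P450 panel assay, CYP1A2 panel member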
# T5 sequence (P05177 whole entry): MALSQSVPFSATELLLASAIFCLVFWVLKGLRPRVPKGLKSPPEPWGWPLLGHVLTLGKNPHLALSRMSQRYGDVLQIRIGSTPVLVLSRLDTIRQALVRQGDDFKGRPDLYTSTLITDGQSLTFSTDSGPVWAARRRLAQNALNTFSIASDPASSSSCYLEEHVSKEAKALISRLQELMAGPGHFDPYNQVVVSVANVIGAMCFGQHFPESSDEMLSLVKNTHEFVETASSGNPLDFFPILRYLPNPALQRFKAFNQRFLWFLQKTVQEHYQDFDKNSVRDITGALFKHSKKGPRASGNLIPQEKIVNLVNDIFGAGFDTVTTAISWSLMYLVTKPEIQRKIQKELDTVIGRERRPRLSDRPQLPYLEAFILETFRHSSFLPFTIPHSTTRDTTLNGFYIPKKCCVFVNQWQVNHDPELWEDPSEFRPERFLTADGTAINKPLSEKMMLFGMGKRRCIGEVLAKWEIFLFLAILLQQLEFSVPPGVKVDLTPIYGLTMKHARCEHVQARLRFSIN
# [15] = target: T6, Heat shock factor protein 1 (Mus musculus, UniProt P38532); test: enhancement of HSF1-driven luciferase signal – cell-based, NIH3T3, luminescence, dose retest, confirmation (AID 435004); assay type: functional;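 note: stress induced by proteasome inhibitor MG132 added 30 min after compound; luciferase reporter driven by HSF1 response element in NIH3T3 cells; actives raise luminescence as potentiators of the MG132 stress response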
# T6 sequence (P38532 whole entry): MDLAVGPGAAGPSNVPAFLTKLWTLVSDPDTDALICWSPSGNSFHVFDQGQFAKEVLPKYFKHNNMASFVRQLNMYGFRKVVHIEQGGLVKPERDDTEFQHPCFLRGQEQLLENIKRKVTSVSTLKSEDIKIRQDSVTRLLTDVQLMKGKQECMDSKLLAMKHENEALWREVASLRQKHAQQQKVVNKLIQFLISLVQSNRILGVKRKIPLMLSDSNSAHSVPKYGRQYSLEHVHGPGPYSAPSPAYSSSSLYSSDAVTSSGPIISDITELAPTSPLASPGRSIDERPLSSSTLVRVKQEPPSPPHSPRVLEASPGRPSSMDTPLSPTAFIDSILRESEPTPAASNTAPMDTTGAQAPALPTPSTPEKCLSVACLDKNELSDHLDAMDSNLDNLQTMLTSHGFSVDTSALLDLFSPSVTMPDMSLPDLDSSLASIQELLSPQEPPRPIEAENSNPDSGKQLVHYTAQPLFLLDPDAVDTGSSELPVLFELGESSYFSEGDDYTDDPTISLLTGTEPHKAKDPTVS
# Sequence of Large T antigen (P03070 whole entry): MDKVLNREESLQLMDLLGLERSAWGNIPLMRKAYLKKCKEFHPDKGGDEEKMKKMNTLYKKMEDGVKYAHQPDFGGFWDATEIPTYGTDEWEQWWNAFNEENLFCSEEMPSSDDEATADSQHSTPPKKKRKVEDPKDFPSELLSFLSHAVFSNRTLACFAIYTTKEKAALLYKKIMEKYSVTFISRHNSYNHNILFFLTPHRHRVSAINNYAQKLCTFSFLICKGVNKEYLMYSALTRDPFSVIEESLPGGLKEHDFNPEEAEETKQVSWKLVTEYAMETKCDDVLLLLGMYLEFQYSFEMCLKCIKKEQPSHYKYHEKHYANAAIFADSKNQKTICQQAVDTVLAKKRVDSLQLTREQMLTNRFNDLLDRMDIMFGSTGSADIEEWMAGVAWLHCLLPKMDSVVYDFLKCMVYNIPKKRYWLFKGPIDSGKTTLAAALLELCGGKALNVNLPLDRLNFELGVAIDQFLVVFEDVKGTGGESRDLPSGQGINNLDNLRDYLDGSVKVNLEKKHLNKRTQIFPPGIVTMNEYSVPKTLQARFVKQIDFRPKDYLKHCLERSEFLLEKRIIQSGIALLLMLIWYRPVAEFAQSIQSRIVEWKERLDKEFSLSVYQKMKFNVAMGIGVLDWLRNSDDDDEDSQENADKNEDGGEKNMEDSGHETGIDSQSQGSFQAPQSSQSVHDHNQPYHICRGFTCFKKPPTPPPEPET
structure (smiles),measurement,setting,value
O=C(COC(=O)CCc1c[nH]c2ccccc12)NCc1ccc(Cl)cc1,IC50,[1],11.8 µM (active)
COc1cc(Cl)ccc1NC(=O)COc1ccccc1C(=O)N1CCN(c2ccc(O)cc2)CC1,IC50,[2],13.4 µM (active)
O=C1NCC(O)=C1/C=N/c1ccccc1O,CC50,[3],> 40 µM (active)
same,IC50,[1],4.46 µM (active)
CC1Cc2ccccc2N1C(=S)NC(=O)c1ccc(Cl)cc1Cl (configuration not stated),CC50,[3],33 µM (active)
same,EC50,[4],5.96 µM (active)
same,EC50,[5],13.7 µM (active)
same,EC50,[6],> 150 µM (not active)
N#Cc1c(N)sc2c1CCCCCC2,EC50,[7],3.76 µM (active)
COCCNC(=O)c1c(N)n(/N=C/c2cccs2)c2nc3ccccc3nc12,IC50,[8],11.2 µM (active)
CN1CCC(=O)N([C@H](CSc2ccc(Br)cc2)Cc2ccccc2)CC1,EC50,[9],4.73 µM (active)
CC(Nc1ccc(N2CCOCC2)cc1)C(=O)N1c2ccccc2CC1C (configuration not stated),IC50,[2],21.1 µM (active)
CC(C)c1ccc(/C=N/NC(=O)CN(c2cccc(Cl)c2Cl)S(C)(=O)=O)cc1,AC50,[10],28.2 µM (inconclusive)
same,AC50,[11],28.2 µM (inconclusive)
same,IC50,[12],7.36 µM (active)
same,IC50,[13],10.4 µM (active)
same,AC50,[14],25.1 µM (inconclusive)
CCCN(C(=O)CCOc1ccc(C(C)(C)C)cc1)c1c(N)n(Cc2ccccc2)c(=O)[nH]c1=O,CC50,[3],> 40 µM (active)
COc1ccc(OC)c(N2Cc3ccccc3C2=N)c1,EC50,[7],3.35 µM (active)
CC1(C)CC(NC(=O)c2cc(COc3cccc(C(F)(F)F)c3)on2)CCO1 (configuration not stated),EC50,[7],1.88 µM (active)
CN(C)C(CN=C(S)Nc1ccc(Cl)cc1)c1cccnc1 (configuration not stated),EC50,[9],0.0147 µM (active)
CCOC(=O)c1c(NC(=O)C(C)Sc2nnc(C)c(O)n2)sc2c1CCCC2 (configuration not stated),EC50,[7],0.237 µM (active)
CCOc1cc(/C=N\NC(=O)Cn2nnc3ccccc32)ccc1O,IC50,[2],13.1 µM (active)
COc1ccc(C(=O)OCC(=O)NCCCc2ccccc2)cc1[N+](=O)[O-],IC50,[12],4.84 µM (active)
same,IC50,[13],4.1 µM (active)
O=C(COC(=O)c1ccccc1Oc1ccccc1)NCc1ccco1,IC50,[8],17.9 µM (active)
O=C(/C=C/c1ccc(O)c(O)c1)O[C@@H]1C[C@](O)(C(=O)O)C[C@@H](O)[C@H]1O [CHLOROGENIC ACID],IC50,[2],14.7 µM (active)
Cc1cccc(N(C(=O)c2snc(C(N)=O)c2N)C(C(=O)NCC2CCCO2)c2ccc3ncccc3c2)c1 (configuration not stated),EC50,[7],7.5 µM (active)
Cc1ccc(-c2nn(-c3cccc(F)c3)cc2CNCc2cccnc2)o1,EC50,[9],2.66 µM (active)
O=C(COc1ccc(Br)cc1)Nc1ccc([N+](=O)[O-])cn1,IC50,[1],26.3 µM (active)
COc1ccc(C(=O)N/C(=C\c2cn(S(=O)(=O)N(C)C)c3ccccc23)C(=O)N2CCCC2)cc1,IC50,[12],4.3 µM (active)
same,IC50,[13],1.47 µM (active)
C=CCOC(=O)COc1ccc2c(C)c(CC)c(=O)oc2c1,IC50,[12],3.08 µM (active)
same,IC50,[13],5.57 µM (active)
CCc1ccc(NC(=O)CSc2nc3nnc(C)c-3c(N)n2-c2cccc(OC)c2)cc1,CC50,[3],22.6 µM (active)
same,EC50,[15],118 µM (active)
CN1CCCC(OC(=O)c2cc(Cl)cc(Cl)c2)C1 (configuration not stated),EC50,[9],0.188 µM (active)
